The target in assay [1] is T1, Heteromeric α9-HNARA10 receptors (Homo sapiens, UniProt Q9GZZ6+Q9UGM1).
T1 construct: expressed in transfected cells; host or cells: Xenopus laevis oocytes (nuclear injection of cDNA)
Kind of assay: ACh-evoked currents in Xenopus laevis oocytes injected with human α9 and HNARA10 cDNAs. In kind it is cell-based. The note with it: for antagonism of ACh responses: α9+HNARA10 receptors.

The target in the next assay is T2, homomeric α9 receptors (Homo sapiens, UniProt Q9UGM1).
T2 construct: expressed in transfected cells; host or cells: Xenopus laevis oocytes (cDNA injection)
Type of assay: cell-based.

Assay [2] has as its target human nicotinic acetylcholine receptor α9 subunit (homomeric α9 receptors) (human) (UniProt Q9UGM1). The experiment in a line: cell-based or functional assay.

Read-outs that look alike come from different tables or passages of the source.

T1 sequence (Q9UGM1 23-479): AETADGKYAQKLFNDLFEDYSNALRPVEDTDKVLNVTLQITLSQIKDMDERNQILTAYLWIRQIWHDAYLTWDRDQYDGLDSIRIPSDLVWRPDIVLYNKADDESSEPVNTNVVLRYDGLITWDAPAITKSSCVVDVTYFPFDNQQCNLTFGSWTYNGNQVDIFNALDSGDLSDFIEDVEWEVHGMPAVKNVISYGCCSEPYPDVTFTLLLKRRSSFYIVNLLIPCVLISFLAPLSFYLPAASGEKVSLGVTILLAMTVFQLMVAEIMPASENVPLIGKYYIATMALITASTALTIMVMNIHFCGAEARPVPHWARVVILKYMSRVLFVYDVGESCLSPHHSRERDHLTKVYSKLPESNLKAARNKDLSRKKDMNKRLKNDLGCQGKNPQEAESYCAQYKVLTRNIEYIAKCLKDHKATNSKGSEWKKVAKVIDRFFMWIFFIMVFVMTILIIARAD
T1 sequence (Q9GZZ6 25-450): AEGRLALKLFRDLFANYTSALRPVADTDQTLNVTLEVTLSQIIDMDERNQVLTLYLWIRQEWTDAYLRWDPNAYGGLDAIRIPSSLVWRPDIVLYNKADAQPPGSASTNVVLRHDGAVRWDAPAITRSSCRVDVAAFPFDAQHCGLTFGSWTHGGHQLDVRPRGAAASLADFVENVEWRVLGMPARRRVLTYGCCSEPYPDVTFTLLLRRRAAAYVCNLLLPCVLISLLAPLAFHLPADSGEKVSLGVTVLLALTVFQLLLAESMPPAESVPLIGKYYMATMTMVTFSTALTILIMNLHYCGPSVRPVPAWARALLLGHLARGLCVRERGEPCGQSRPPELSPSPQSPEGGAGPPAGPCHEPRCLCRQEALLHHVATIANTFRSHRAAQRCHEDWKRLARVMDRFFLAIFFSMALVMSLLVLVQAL
T2 sequence (Q9UGM1 23-479): as the sequence (Q9UGM1 23-479) above
Chain of human nicotinic acetylcholine receptor α9 subunit (homomeric α9 receptors) (human) (Q9UGM1 23-479): as above

On to `C[N+](C)(C)CCOC(N)=O` [carbachol], for which the “evoked current (partial agonist)” value in assay [1] (oocytes expressing the mixture α9-HNARA10, from dose-response curves) was “about 72%”.
Regarding `Clc1ccc(C2CC3CCC2N3)cn1` (centres unmarked) [epibatidine], the agonist response entry (on homomeric α9 receptors (α9 expressing oocytes); in assay [1] (α9+HNARA10 expressing oocytes)) was “did not elicit any response” in each case.
On to `CN1CCCC1c1cccnc1` (centres unmarked) [nicotine], for which the agonist response result (at homomeric α9 receptors; in assay [1]) was “did not elicit any response” in each case.
For “HNARA10 polypeptide (human nicotinic acetylcholine receptor alpha 10 subunit)”, the amplitude of acetylcholine-evoked currents in Xenopus oocytes, α9-HNARA10 mixture against α9 alone in assay [2] came out at 100 fold.
For the molecule `CO[C@H]1CC=C2CCN3CCC4=C(CC(=O)OC4)[C@]23C1` [dihydro-β-erythroidine], in assay [1], the “antagonism of ACh responses” value was “did not have any effect”.
As for `COc1cc2c3cc1Oc1cc(ccc1O)C[C@@H]1c4c(cc(OC)c(O)c4Oc4ccc(cc4)C[C@@H]3N(C)CC2)CC[N+]1(C)C` [d-tubocurarine], the “antagonism of ACh responses” value (on homomeric α9 receptors (α9 receptors); in assay [1]) was “fully antagonized” in each case.
In the case of `C[N+]1(C)CCN(c2ccccc2)CC1` [DMPP], the agonist response result (at homomeric α9 receptors; in assay [1]) was “did not elicit any response” throughout.

Values taken from EP1222265B1, “NOVEL NICOTINIC ACETYLCHOLINE RECEPTOR SUBUNIT, ITS ISOLATION AND USE” (Sanofi-Aventis, priority 1999, dated 2001).
